In US10344002B2, “Compositions and methods for treating metabolic disorders” (NuSirt Sciences, Inc., priority 2016, dated 2019):

What was measured:
AMPK = assay: Western blot, P-AMPK/AMPK in C. elegans treated from L1 stage to adulthood; format: in vivo; conditions: for ratio of P-AMPK/AMPK (FIG. 7B): 3 days, control approximately 0.18
Experimental: (§1) C. elegans culture: Synchronized L1 wild-type worms were transferred to NGM agar plates with the following treatments until adulthood (3 days): 1. control NGM plates, 2. NGM plate with 10 nM Compound 2 added to E. coli suspension, 3. NGM plate with 100 nM Compound 2 added to E. coli suspension.
(§2) Western blots: Phospho-AMPK, AMPK, Phospho-ACC, ACC antibodies were obtained from Cell Signaling (Danvers, Mass.). Sir2 antibody was obtained from MyBiosource (San Diego, Calif.). Protein levels of cell extracts were measured by BCA kit (Thermo Scientific, Pittsburgh, Pa.). For Western blot, 10-50 μg protein was resolved on 4-15% gradient polyacrylaminde gels (Criterion precast gel, Bio-Rad Laboratories, Hercules, Calif.), transferred to either PVDF or nitrocellulose membranes, incubated in blocking buffer (3% BSA or 5% non-fat dry milk in TBS) and then incubated with primary antibody (1:1000 dilution), washed and incubated with horseradish peroxidase- or fluorescence-conjugated secondary antibody (1:10000 dilution). Visualization was conducted using BioRad ChemiDoc instrumentation and software (Bio-Rad Laboratories, Hercules, Calif.) and band intensity was assessed using Image Lab 4.0 with correction for background and loading controls.

C. elegans [1] = assay: Lifespan of C. elegans under normal and mild oxidative stress (Paraquat) conditions; format: in vivo; conditions: for increase of median lifespan: 10 nM and 100 nM, p<0.0002
Experimental: Lifespan Protocol: Wild-type worms were synchronized and hatched L1s were transferred to normal NGM agar plates until L4/young adult stage (3 days). 100 synchronized stage L4 worms per group were picked and placed on NGM agar plates seeded with E. coli strain OP-50 (=day 1 of study). Paraquat was added in the indicated concentration to the agar plates, the Compound 2 concentrations were dissolved in the E. coli suspension. The worms were maintained at 21° C. throughout the duration of the study. Live worms were placed on new plates every day to eliminate progeny.
Statistics: For the statistical analysis of the lifespan study with C. elegans, data were analyzed via Kaplan-Meier survival curves and statistical significance between curves was determined with the Log-rank (Mantel_Cox) test using Prism 6 (GraphPad Software, La Jolla Calif., USA, www.graphpad.com).

3T3L1 adipocytes [2] = assay: Lipid accumulation (Oil Red Staining) in 3T3L1 adipocytes; format: cell-based; conditions: 72 hours; for Oil Red absorbance (FIG. 11): control approximately 0.66
Experimental: Cell Culture: 3T3L1 adipocytes were seeded with 80,000 cells per well on 24-well tissue culture plates in high glucose (25 mM) DMEM containing 10% FBS and antibiotics. After reaching confluency (3 days), cells were induced to differentiate with a standard differentiation media (DM2-L1, Zen-Bio Inc., NC) for 3 days, then cells were maintained in DMEM (10% FBS, 1% penicillin-streptomycin) for another 8 days to induce lipid accumulation. Cells were then treated with indicated concentration of Compound 2 for 72 hours.
Compound 2 was dissolved in 100% DMSO to a stock concentration of 100 mM. This stock was further diluted to indicated concentrations in DMEM media.
Lipid accumulation (Oil Red Staining): 3T3L1 adipocytes were seeded and treated as described above. After 72 hours of treatment with Compound 2, lipid accumulation in adipocytes was measured via Oil Red Staining. Cells were washed with phosphate buffered saline (PBS) once, then cells were fixated with 10% formalin for 1 hour. After removal of the formalin, cells were washed with ddH2O twice, then washed with 60% isopropanol. Cells were dried completely. Cells were stained with Oil Red working solution (˜5 mM) for 25 minutes, then immediately washed with ddH2O four times, then dried completely again. Oil Red dye was eluted with 100% isopropanol and absorbance was read at 500 nm. Unstained cells plus isopropanol was used as a blank and subtracted from all readings. Data are represented as mean±SEM for each treatment group.

3T3L1 adipocytes [3] = assay: Fatty acid oxidation (oxygen consumption rate) in 3T3L1 adipocytes; format: cell-based; conditions: for baseline OCR, area under the curve (FIG. 10A): control approximately 6000; for palmitate induced OCR, area under the curve (FIG. 10B): control approximately 52000
Sir2 = assay: Western blot, Sir2 protein expression in C. elegans treated from L1 stage to adulthood; format: in vivo; conditions: for Sir2 protein expression, fold change of control (FIG. 7A): 3 days
Experimental: as §1, §2

C. elegans [4] = assay: Lipid accumulation (Oil Red Staining) in C. elegans; format: in vivo; conditions: for lipid accumulation, fold change of control (FIG. 12): 3 days, absorbance normalized to worm number
Experimental: as §1
Lipid accumulation (Oil Red Staining): Worms were washed off the plate with 2×5 ml PBS and collected in centrifuge tubes. The tubes were centrifuged at 1000 g for 30 seconds, then the supernatant was removed and the worm pellet was washed again with 5 ml PBS. Then the supernatant was discarded except approximately 400 ul, to which 200 ul of 10% paraformaldehyde was added and then gently rocked for 60 minutes at room temperature. To remove the paraformaldehyde, worms were centrifuged at 1500 g for 30 sec, then washed 1× with 5 ml PBS, centrifuged and supernatant removed except 400 ul, to which 600 ul of 100% isopropanol was added and mixed by inverting the tube and incubated for 15 minutes at room temperature. After centrifugation, the isopropanol was removed, then 1 ml of 60% filtered OilRed (4 vol ddH2O and 6 vol of OilRed stock (OilRed stock: dilute 0.35 g OilRed O (Sigma Cat #0-0625, FW 408.5) in 100 ml 100% isopropanol, stirred overnight, then filtered (0.2 um) and stored at room temperature), let stand for 15 to 20 min and filter with 0.2 um) was added. Worms were rotated on shaker overnight at room temperature and protected from light. Next day, the worms were centrifuged at 1200 g for 30 seconds, the dye was removed, and worms were washed 4 times with ddH2O. At last washing step, 2 ml of ddH2O was added and worms were counted under microscope in 3×20 ul drops. The worm number was multiplied by 100 to calculate the total worm number for normalization of the absorbance data. Then worm solution was centrifuged again, supernatant removed and 300 ul of 100% isopropanol was added to elute the OilRed. 100 ul aliquots of OilRed-isopropanol in transferred to 96-well plate and the absorbance was measured at 500 nm.

[5] = mild oxidative stress (500 uM Paraquat)

## CC(C)C[C@@H]1NC(N=C(N)N)=NC1=O [Compound 2]
AMPK; 10 nM
  ratio of P-AMPK/AMPK (FIG. 7B): approximately 0.27
AMPK; 100 nM
  ratio of P-AMPK/AMPK (FIG. 7B): approximately 0.26
AMPK; L1 stage to adulthood (3 days), p=0.06
  increase of P-AMPK/AMPK protein expression: approximately 50%
C. elegans [1]; [5]
  increase of maximum lifespan: 14%
  increase of median lifespan: 30%
C. elegans [1]; normal conditions
  increase of median lifespan: 18%
3T3L1 adipocytes [2]; 1 nM, 500 nm
  Oil Red absorbance (FIG. 11): approximately 0.57
3T3L1 adipocytes [2]; 10 nM, 500 nm
  Oil Red absorbance (FIG. 11): approximately 0.58
3T3L1 adipocytes [2]; 50 nM, 500 nm
  Oil Red absorbance (FIG. 11): approximately 0.53
3T3L1 adipocytes [2]; 100 nM, 500 nm
  Oil Red absorbance (FIG. 11): approximately 0.54
3T3L1 adipocytes [2]; 200 nM, 500 nm
  Oil Red absorbance (FIG. 11): approximately 0.51
3T3L1 adipocytes [2]; 350 nM, 500 nm
  Oil Red absorbance (FIG. 11): approximately 0.55
3T3L1 adipocytes [2]; 500 nM
  Oil Red absorbance (FIG. 11): approximately 0.68
3T3L1 adipocytes [2]; 50 to 350 nM, p<0.05
  reduction in lipid accumulation (plateau effect): up to 23%
3T3L1 adipocytes [2]; higher concentration (500 nM)
  lipid reducing effect: lost
3T3L1 adipocytes [3]; 10 nM, 48 hours of treatment
  increase of baseline OCR: 50%
  increase of palmitate stimulated OCR: 43%
3T3L1 adipocytes [3]; 10 nM
  baseline OCR, area under the curve (FIG. 10A): approximately 7900 pMoles/min
  palmitate induced OCR, area under the curve (FIG. 10B): approximately 78000 pMoles/min
3T3L1 adipocytes [3]; 100 nM, compared with 10 nM
  effect on baseline and palmitate stimulated OCR: smaller effect
3T3L1 adipocytes [3]; 100 nM
  baseline OCR, area under the curve (FIG. 10A): approximately 7000 pMoles/min
  palmitate induced OCR, area under the curve (FIG. 10B): approximately 62000 pMoles/min
Sir2; 10 nM
  Sir2 protein expression, fold change of control (FIG. 7A): approximately 1.65 fold change
Sir2; 100 nM
  Sir2 protein expression, fold change of control (FIG. 7A): approximately 1.5 fold change
Sir2; L1 stage to adulthood (3 days), p=0.03
  increase in Sir2 protein expression: up to 60%
C. elegans [4]; 10 nM
  lipid accumulation, fold change of control (FIG. 12): approximately 0.45 fold change
C. elegans [4]; 100 nM
  lipid accumulation, microscopic images (FIG. 13B): significant reduction
  lipid accumulation, fold change of control (FIG. 12): approximately 0.35 fold change
C. elegans [4]; 100 nM, L1 stage to adulthood (3 days), p<0.05
  reduction in lipid accumulation: 60%
